Assay: Inhibition of human recombinant ADAM17 using Mca-PLAQAV-Dpa-RSSSR-NH2

IC50 | Compound
5.7 nM | CC(C)C[C@H](CC(=O)NO)C(=O)N[C@@H](Cc1ccccc1)C(=O)N[C@@H](CCCCN)C(N)=O
25 nM | CC(C)C[C@H](CC(=O)NO)C(=O)N[C@@H](Cc1ccccc1)C(=O)N[C@@H](CCCCNC(=O)c1ccc(F)cc1)C(N)=O
